The values that follow come from patent US20210255193A1, “LYSINE REACTIVE PROBES AND USES THEREOF” (The Scripps Research Institute, priority 2017, published 2021).

One experiment has as its target T1, FH Fumarate hydratase, mitochondrial (Homo sapiens, UniProt P07954).
T1 construct: isoTOP-ABPP experiments performed in cell lysates (in vitro); endogenous in cells; host or cells: MDA-MB-231 soluble lysate
T1 sequence (P07954 45-510): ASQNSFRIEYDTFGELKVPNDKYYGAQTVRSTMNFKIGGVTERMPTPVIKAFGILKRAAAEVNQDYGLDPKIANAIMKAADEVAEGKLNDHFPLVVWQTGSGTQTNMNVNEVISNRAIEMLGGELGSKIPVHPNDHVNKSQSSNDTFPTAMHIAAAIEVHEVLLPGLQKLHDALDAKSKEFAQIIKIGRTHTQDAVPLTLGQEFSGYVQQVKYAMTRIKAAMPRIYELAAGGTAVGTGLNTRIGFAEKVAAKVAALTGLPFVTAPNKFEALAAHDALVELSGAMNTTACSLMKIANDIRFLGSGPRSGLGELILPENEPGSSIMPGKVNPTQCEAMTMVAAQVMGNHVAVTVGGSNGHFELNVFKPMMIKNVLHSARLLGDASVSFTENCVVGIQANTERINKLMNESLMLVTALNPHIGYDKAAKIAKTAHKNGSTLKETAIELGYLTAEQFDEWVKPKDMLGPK
Nature of the experiment: competitive isoTOP-ABPP. Type of experiment: binding. The note with it: 50 uM, 231 sol, in vitro. The method, boiled down:
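Readout: isotopic light/heavy MS1 peak-area ratio (R, DMSO heavy over compound light), median across peptides sharing a modified lysine. Lysate received fragment (activated esters 50 μM, guanidinylating agents 100 μM final) or DMSO, then 0.1 mM STP-alkyne probe for 1 h at ambient temperature.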
As to `O=C(CCc1coc2cc(F)ccc2c1=O)Oc1c(F)c(F)c(F)c(F)c1F` [fragment 26, Pentafluorophenyl 3-(7-fluoro-4-oxo-4H-chromen-3-yl)propanoate], the “isoTOP-ABPP reactivity ratio at lysine P07954_K311” value stood at 2.4.
Still for that read-out and setting: to `O=C(Oc1ccc([N+](=O)[O-])cc1[N+](=O)[O-])C(c1ccccc1)c1ccccc1` [fragment 30, 2,4-Dinitrophenyl 2,2-diphenylacetate] belongs 5.2; to `O=C(Oc1ccc([N+](=O)[O-])cc1[N+](=O)[O-])c1cc(C(F)(F)F)cc(C(F)(F)F)c1` [fragment 31, 2,4-Dinitrophenyl 3,5-bis(trifluoromethyl)benzoate], 1.4.
Turning to `COc1cc(CCC(=O)Oc2ccc([N+](=O)[O-])cc2[N+](=O)[O-])cc(OC)c1OC` [fragment 33, 2,4-Dinitrophenyl 3-(3,4,5-trimethoxyphenyl)propanoate], the “isoTOP-ABPP reactivity ratio at lysine P07954_K311” value was 2.2.

Staying with this experiment, now noted: 50 uM, in vitro, sol, 231.
As for `O=C(Oc1ccc([N+](=O)[O-])cc1[N+](=O)[O-])c1ccc(-c2ccccc2)cc1` [fragment 37, 2,4-Dinitrophenyl [1,1′-biphenyl]-4-carboxylate], the “isoTOP-ABPP ratio (R) at liganded lysine P07954_K311” value (“isoTOP-ABPP ratio (R)” below) was 1.2.
Regarding `O=C(Oc1ccc([N+](=O)[O-])cc1[N+](=O)[O-])c1ccc(Oc2ccccc2)cc1` [fragment 39, 2,4-Dinitrophenyl 4-phenoxybenzoate], the “isoTOP-ABPP ratio (R)” value came out at 0.9.
As for `CC(C)(C)OC(=O)NCCCC(=O)Oc1ccc([N+](=O)[O-])cc1[N+](=O)[O-]` [fragment 41, 2,4-Dinitrophenyl 4-((tert-butoxycarbonyl)amino)butanoate], the “isoTOP-ABPP ratio (R)” value was found to be 1.0.

Still in this experiment, the particulars now being: 50 uM_231_sol_in vitro.
`O=C(CCc1ccc2c(c1)OCO2)Oc1ccc([N+](=O)[O-])cc1[N+](=O)[O-]` [fragment 45, 2,4-Dinitrophenyl 3-(benzo[d][1,3]dioxol-5-yl)propanoate]: the “isoTOP-ABPP ratio, lysine P07954_K311” value is recorded as 1.8.
The same measure, in the same setting: to `O=C(Oc1c(F)c(F)c(C(F)(F)F)c(F)c1F)c1cc(C(F)(F)F)cc(C(F)(F)F)c1` [fragment 47, 2,3,5,6-Tetrafluoro-4-(trifluoromethyl)phenyl 3,5-bis(trifluoromethyl)benzoate] belongs 1.4.
In the case of `NC(=O)c1cc(C(F)(F)F)cc(C(F)(F)F)c1` [fragment 51, reference compound], the “isoTOP-ABPP ratio, lysine P07954_K311” value is recorded as 1.0.

Still in this experiment, the particulars now being: P07954_K311; 50 uM, 231 sol, in vitro.
With `O=C(Oc1c(F)c(F)c(F)c(F)c1F)C(c1ccccc1)c1ccccc1` [fragment 20, Pentafluorophenyl 2,2-diphenylacetate], the “R value (DMSO/fragment) for probe 1 labeling” value came to 1.2.
With `O=C(Oc1c(F)c(F)c(F)c(F)c1F)c1cc(C(F)(F)F)cc(C(F)(F)F)c1` [fragment 21, Pentafluorophenyl 3,5-bis(trifluoromethyl)benzoate], the “R value (DMSO/fragment) for probe 1 labeling” value amounted to 1.3.
Same read-out and setting: the result for `COc1cc(CCC(=O)Oc2c(F)c(F)c(F)c(F)c2F)cc(OC)c1OC` [fragment 23, Pentafluorophenyl 3-(3,4,5-trimethoxyphenyl)propanoate] reads 2.6.
